test: recombinant barcode read abundance after kanamycin selection (control-corrected) (log10(CPM+1)); higher = more efficient recombination; sequences stand for … in AGTGCAGAGAAAATCGGCCAGTTTTCTCTGCCTGCAGTCCGCATGCCGT…ATTTATGCAGCGGACTGCCTTTCTCCCAAAGTGATAAACCGGACAGTATCATGGACCGGTTTTCCCGGTAATCCGTATTTGCAAGGTTGGTTTCACT; site = the 11-nt target
How it was run: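 IS621 bridge RNA target-binding loops were paired with targets in a pooled library tested in E. coli. After co-electroporation with a donor plasmid, cells were plated in two replicates on chloramphenicol/ampicillin LB agar (control) and on chloramphenicol/ampicillin/kanamycin carrying 0.1 mM IPTG. Barcodes at recombinant junctions were counted as counts per million, averaged and control-corrected to give recombination efficiency. Values are log10(CPM+1).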

Row | Sequence | recombinant barcode read abundance (log10)
1 | AGGCGGTCTTGGGTTCTAACCTGTTGCTTTG [AGGCGGTCTAA_LTGcore_CT_RTGcore_CA] (site AGGCGGTCTAA) (LTG core: CT, RTG core: CA) | 0.0581
2 | GAGTCCTTATGGGTTCTAACCTGTTGCCTAG [GAGTCCTCTAG_LTGcore_TA_RTGcore_CT] (site GAGTCCTCTAG) (LTG core: TA, RTG core: CT) | 0.414
3 | GAGTCCTCTTGGGTTCTAACCTGTTGCCTTC [GAGTCCTCTAG_LTGcore_CT_RTGcore_GA] (site GAGTCCTCTAG) (LTG core: CT, RTG core: GA) | 1.24
4 | GCGGGACCTTGGGTTCTAACCTGTTGCCTGT [GCGGGACCTAG_LTGcore_CT_RTGcore_AC] (site GCGGGACCTAG) (LTG core: CT, RTG core: AC) | 1.21
5 | AGGCGGGCTTGGGTTCTAACCTGTTGCGGAG [AGGCGGGCTCC_LTGcore_CT_RTGcore_CT] (site AGGCGGGCTCC) (LTG core: CT, RTG core: CT) | 1.66
6 | AGTCTTACTTGGGTTCTAACCTGTTGCCAAG [AGTCTTACTTG_LTGcore_CT_RTGcore_CT] (site AGTCTTACTTG) (LTG core: CT, RTG core: CT) | 0.0171
7 | GAGGCCTCTTGGGTTCTAACCTGTTGCCAGT [GAGGCCTCTTG_LTGcore_CT_RTGcore_AC] (site GAGGCCTCTTG) (LTG core: CT, RTG core: AC) | 0.0794
8 | GGCTCCCGCTGGGTTCTAACCTGTTGCGGAG [GGCTCCCCTCC_LTGcore_GC_RTGcore_CT] (site GGCTCCCCTCC) (LTG core: GC, RTG core: CT) | 0.0135
9 | AGGAGGTCGTGGGTTCTAACCTGTTGCCTAG [AGGAGGTCTAG_LTGcore_CG_RTGcore_CT] (site AGGAGGTCTAG) (LTG core: CG, RTG core: CT) | 0.0327
10 | ATGCTTTGCTGGGTTCTAACCTGTTGCCTGC [ATGCTTTCTAG_LTGcore_GC_RTGcore_GC] (site ATGCTTTCTAG) (LTG core: GC, RTG core: GC) | 0.0848
11 | CATATTACTTGGGTTCTAACCTGTTGCCTCG [CATATTACTAG_LTGcore_CT_RTGcore_CG] (site CATATTACTAG) (LTG core: CT, RTG core: CG) | 0.0475
12 | AGGCGGTAGTGGGTTCTAACCTGTTGCTTAG [AGGCGGTCTAA_LTGcore_AG_RTGcore_CT] (site AGGCGGTCTAA) (LTG core: AG, RTG core: CT) | 0.187
13 | AAACACATATGGGTTCTAACCTGTTGCCTTA [AAACACACTAG_LTGcore_TA_RTGcore_TA] (site AAACACACTAG) (LTG core: TA, RTG core: TA) | 0.146
14 | GAGGCCTTCTGGGTTCTAACCTGTTGCCAAG [GAGGCCTCTTG_LTGcore_TC_RTGcore_CT] (site GAGGCCTCTTG) (LTG core: TC, RTG core: CT) | 0.0445
15 | ACGGGACCTTGGGTTCTAACCTGTTGCAGCT [ACGGGACCTCT_LTGcore_CT_RTGcore_AG] (site ACGGGACCTCT) (LTG core: CT, RTG core: AG) | 1.07
16 | GTCGCCCAGTGGGTTCTAACCTGTTGCTACT [GTCGCCCCTTA_LTGcore_AG_RTGcore_AG] (site GTCGCCCCTTA) (LTG core: AG, RTG core: AG) | 0.283
17 | GGACACCTCTGGGTTCTAACCTGTTGCCTGA [GGACACCCTAG_LTGcore_TC_RTGcore_TC] (site GGACACCCTAG) (LTG core: TC, RTG core: TC) | 0.149
18 | GAGCCCATTTGGGTTCTAACCTGTTGCCTAG [GAGCCCACTAG_LTGcore_TT_RTGcore_CT] (site GAGCCCACTAG) (LTG core: TT, RTG core: CT) | 0.0489
19 | GGACACCCTTGGGTTCTAACCTGTTGCCTGC [GGACACCCTAG_LTGcore_CT_RTGcore_GC] (site GGACACCCTAG) (LTG core: CT, RTG core: GC) | 1.55

Reference: the supplement of paper PMC11208160
